Literature values in patent US8916194B2 (Lupin Limited, priority 2010, dated 2014).

Conditions: in vivo

- half-life: ~8 h
SMILES: CCN(CC)C(=O)C1(c2ccccc2)CC1CN (stereo not drawn) [Milnacipran, cis-2-amino methyl-N, N-diethyl-1-phenyl cyclopropane carboxamide]
